# Measurements taken from PMC4694564 (Molecular pharmaceutics, 2015).
# T1: carboxylesterase 2 (CES2) (Homo sapiens, UniProt O00748)
# T1 sequence (O00748 27-559): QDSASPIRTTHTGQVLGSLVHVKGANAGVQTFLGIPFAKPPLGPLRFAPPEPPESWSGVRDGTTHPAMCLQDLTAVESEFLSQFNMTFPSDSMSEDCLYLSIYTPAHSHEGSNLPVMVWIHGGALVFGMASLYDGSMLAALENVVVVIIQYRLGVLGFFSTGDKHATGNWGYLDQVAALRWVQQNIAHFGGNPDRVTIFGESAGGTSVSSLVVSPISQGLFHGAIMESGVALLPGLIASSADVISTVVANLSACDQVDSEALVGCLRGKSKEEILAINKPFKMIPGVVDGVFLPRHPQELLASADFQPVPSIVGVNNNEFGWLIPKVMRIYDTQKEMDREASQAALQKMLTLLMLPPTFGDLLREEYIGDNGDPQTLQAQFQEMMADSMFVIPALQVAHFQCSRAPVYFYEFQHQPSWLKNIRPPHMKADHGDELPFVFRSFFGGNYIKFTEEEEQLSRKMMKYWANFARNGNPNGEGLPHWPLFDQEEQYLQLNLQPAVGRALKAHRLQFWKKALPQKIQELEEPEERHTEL
# T2: carboxylesterase 1 (CES1) (Homo sapiens, UniProt P23141)
# T2 sequence (P23141 18-567): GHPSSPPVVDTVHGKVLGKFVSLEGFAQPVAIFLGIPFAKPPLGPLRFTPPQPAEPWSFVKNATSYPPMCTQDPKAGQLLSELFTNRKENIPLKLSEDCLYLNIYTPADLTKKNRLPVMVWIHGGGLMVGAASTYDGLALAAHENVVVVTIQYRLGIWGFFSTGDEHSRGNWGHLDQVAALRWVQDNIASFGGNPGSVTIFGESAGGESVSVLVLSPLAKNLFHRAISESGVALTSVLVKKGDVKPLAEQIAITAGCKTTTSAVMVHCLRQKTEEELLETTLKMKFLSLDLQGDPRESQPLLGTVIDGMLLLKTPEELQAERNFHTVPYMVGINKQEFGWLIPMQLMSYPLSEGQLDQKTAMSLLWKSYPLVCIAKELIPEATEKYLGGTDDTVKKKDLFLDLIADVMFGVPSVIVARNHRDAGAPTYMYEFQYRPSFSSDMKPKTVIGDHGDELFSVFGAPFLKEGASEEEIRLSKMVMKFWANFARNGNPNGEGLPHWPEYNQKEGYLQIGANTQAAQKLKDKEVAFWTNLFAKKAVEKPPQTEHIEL
# B1: carboxylesterase 1 (CES1) (Homo sapiens) (protein)
# chain: T2 sequence (P23141 18-567)
# Key:
# [1] = molecular target: T1, carboxylesterase 2 (CES2); assay: inhibition of recombinant human CES2; assay type: biochemical
# [2] = molecular target: T2, carboxylesterase 1 (CES1); assay: inhibition of recombinant human CES1; assay type: biochemical
# [3] = substrate: CCOC(=O)C1=C[C@@H](OC(CC)CC)[C@H](NC(C)=O)[C@@H](N)C1; assay: purified protein; assay type: biochemical, Homo sapiens
Molecule,IC50 [1],IC50 [2],Km [3]
"Cc1cc(OC(=O)NC2CCCCC2)ccc1F [WWL50, 4-fluoro-3-methylphenyl cyclohexylcarbamate]",429 ± 2.6 nM,4.3 ± 0.6 nM,
B1,,,2900 µM
